Calls of active or inactive are those of the source. The calls are words filed in the database; no cut-off is given here.
Assays:
[1] = Antiproliferative activity against rat Synovial cell assessed as inhibition of cell growth incubated for 48 hrs by CCK-8 assay; format: functional, cell-based
RAW264.7 [2] = assay: Antiproliferative activity against LPS-induced- mouse RAW264.7 cells assessed as inhibition of cell growth incubated for 24 hrs by CCK-8 assay; format: functional, cell-based; conditions: RAW264.7, 24 h
RAW264.7 [3] = assay: Antiarthritic activity against LPS-induced mouse RAW264.7 cells assessed as reduction in TNF-alpha level at 1 uM incubated for 24 hrs (Rvb 653.3 +/- 70.1 pg/L); format: functional
RAW264.7 [4] = assay: Antiarthritic activity against LPS-induced mouse RAW264.7 cells assessed as reduction in IL-6 level at 1 uM incubated for 24 hrs (Rvb 231.1 +/- 24.2 pg/L); format: functional
Toll-like receptor 4 = Toll-like receptor 4 (Homo sapiens, UniProt O00206); assay: Inhibition of TLR4 (unknown origin) using TMB as substrate incubated for 90 mins
RAW264.7 [5] = assay: Antiarthritic activity against LPS-induced mouse RAW264.7 cells assessed as reduction in IL-1beta level at 1 uM incubated for 24 hrs (Rvb 665.1 +/- 82.1 pg/L); format: functional
RAW264.7 [6] = assay: Antiarthritic activity against LPS-induced mouse RAW264.7 cells assessed as reduction in TNF-alpha level at 1 uM pretreated with compound for 24 hrs followed by LPS induction and measured after 24 hrs; format: functional, cell-based; conditions: time 48.0 hrs
RAW264.7 [7] = assay: Antiarthritic activity against LPS-induced mouse RAW264.7 cells assessed as downregulation of TNF-alpha mRNA expression at 1 uM preincubated with compound for 24 hrs followed by LPS-induction and measured after 24 hrs by RT-PCR analysis; format: functional, cell-based; conditions: time 48.0 hrs
RAW264.7 [8] = assay: Antiarthritic activity against LPS-induced mouse RAW264.7 cells assessed as downregulation of NF-kappaB mRNA expression at 1 uM preincubated with compound for 24 hrs followed by LPS-induction and measured after 24 hrs by RT-PCR analysis; format: functional, cell-based; conditions: time 48.0 hrs
RAW264.7 [9] = assay: Antiarthritic activity against LPS-induced mouse RAW264.7 cells assessed as downregulation of TLR4 mRNA expression at 1 uM preincubated with compound for 24 hrs followed by LPS-induction and measured after 24 hrs by RT-PCR analysis; format: functional, cell-based; conditions: time 48.0 hrs
RAW264.7 [10] = assay: Antiarthritic activity against LPS-induced mouse RAW264.7 cells assessed as downregulation of TLR4 expression at 1 uM preincubated with compound for 24 hrs followed by LPS-induction and measured after 24 hrs by immunofluorescence analysis; format: functional, cell-based; conditions: time 48.0 hrs
RAW264.7 [11] = assay: Antiarthritic activity against LPS-induced mouse RAW264.7 cells assessed as reduction in IL-1beta level at 1 uM pretreated with compound for 24 hrs followed by LPS induction and measured after 24 hrs; format: functional, cell-based; conditions: time 48.0 hrs
RAW264.7 [12] = assay: Antiarthritic activity against LPS-induced mouse RAW264.7 cells assessed as downregulation of TNF-alpha expression at 1 uM preincubated with compound for 24 hrs followed by LPS-induction and measured after 24 hrs by immunofluorescence analysis; format: functional, cell-based; conditions: time 48.0 hrs
RAW264.7 [13] = assay: Antiarthritic activity against LPS-induced mouse RAW264.7 cells assessed as downregulation of TNF-alpha expression at 1 uM preincubated with compound for 24 hrs followed by LPS-induction and measured after 24 hrs by Western blot analysis; format: functional, cell-based; conditions: time 48.0 hrs
RAW264.7 [14] = assay: Antiproliferative activity against LPS-induced- mouse RAW264.7 cells assessed as decrease in number of cells at 1 uM pretreated with compound for 24 hrs followed by LPS induction and measured after 24 hrs; format: functional, cell-based; conditions: time 48.0 hrs
RAW264.7 [15] = assay: Antiarthritic activity against LPS-induced mouse RAW264.7 cells assessed as downregulation of JAK2 mRNA expression at 1 uM preincubated with compound for 24 hrs followed by LPS-induction and measured after 24 hrs by RT-PCR analysis; format: functional, cell-based; conditions: time 48.0 hrs
RAW264.7 [16] = assay: Antiarthritic activity against LPS-induced mouse RAW264.7 cells assessed as downregulation of STAT3 mRNA expression at 1 uM preincubated with compound for 24 hrs followed by LPS-induction and measured after 24 hrs by RT-PCR analysis; format: functional, cell-based; conditions: time 48.0 hrs
RAW264.7 [17] = assay: Antiproliferative activity against LPS-induced- mouse RAW264.7 cells assessed as cell survival at 1 uM pretreated with compound for 24 hrs followed by LPS induction and measured after 24 hrs; format: functional, cell-based; conditions: time 48.0 hrs
RAW264.7 [18] = assay: Antiarthritic activity against LPS-induced mouse RAW264.7 cells assessed as downregulation of JAK2 expression at 1 uM preincubated with compound for 24 hrs followed by LPS-induction and measured after 24 hrs by immunofluorescence analysis; format: functional, cell-based; conditions: time 48.0 hrs
RAW264.7 [19] = assay: Antiarthritic activity against LPS-induced mouse RAW264.7 cells assessed as downregulation of NF-kappaB expression at 1 uM preincubated with compound for 24 hrs followed by LPS-induction and measured after 24 hrs by Western blot analysis; format: functional, cell-based; conditions: time 48.0 hrs
RAW264.7 [20] = assay: Antiarthritic activity against LPS-induced mouse RAW264.7 cells assessed as downregulation of STAT3 expression at 1 uM preincubated with compound for 24 hrs followed by LPS-induction and measured after 24 hrs by immunofluorescence analysis; format: functional, cell-based; conditions: time 48.0 hrs
RAW264.7 [21] = assay: Antiarthritic activity against LPS-induced mouse RAW264.7 cells assessed as downregulation of TLR4 expression at 1 uM preincubated with compound for 24 hrs followed by LPS-induction and measured after 24 hrs by Western blot analysis; format: functional, cell-based; conditions: time 48.0 hrs
RAW264.7 [22] = assay: Antiarthritic activity against LPS-induced mouse RAW264.7 cells assessed as reduction in IL-6 level at 1 uM pretreated with compound for 24 hrs followed by LPS induction and measured after 24 hrs; format: functional, cell-based; conditions: time 48.0 hrs
RAW264.7 [23] = assay: Antiarthritic activity against LPS-induced mouse RAW264.7 cells assessed as downregulation of NF-kappaB expression at 1 uM preincubated with compound for 24 hrs followed by LPS-induction and measured after 24 hrs by immunofluorescence analysis; format: functional, cell-based; conditions: time 48.0 hrs

Sequence of Toll-like receptor 4 (O00206 whole entry): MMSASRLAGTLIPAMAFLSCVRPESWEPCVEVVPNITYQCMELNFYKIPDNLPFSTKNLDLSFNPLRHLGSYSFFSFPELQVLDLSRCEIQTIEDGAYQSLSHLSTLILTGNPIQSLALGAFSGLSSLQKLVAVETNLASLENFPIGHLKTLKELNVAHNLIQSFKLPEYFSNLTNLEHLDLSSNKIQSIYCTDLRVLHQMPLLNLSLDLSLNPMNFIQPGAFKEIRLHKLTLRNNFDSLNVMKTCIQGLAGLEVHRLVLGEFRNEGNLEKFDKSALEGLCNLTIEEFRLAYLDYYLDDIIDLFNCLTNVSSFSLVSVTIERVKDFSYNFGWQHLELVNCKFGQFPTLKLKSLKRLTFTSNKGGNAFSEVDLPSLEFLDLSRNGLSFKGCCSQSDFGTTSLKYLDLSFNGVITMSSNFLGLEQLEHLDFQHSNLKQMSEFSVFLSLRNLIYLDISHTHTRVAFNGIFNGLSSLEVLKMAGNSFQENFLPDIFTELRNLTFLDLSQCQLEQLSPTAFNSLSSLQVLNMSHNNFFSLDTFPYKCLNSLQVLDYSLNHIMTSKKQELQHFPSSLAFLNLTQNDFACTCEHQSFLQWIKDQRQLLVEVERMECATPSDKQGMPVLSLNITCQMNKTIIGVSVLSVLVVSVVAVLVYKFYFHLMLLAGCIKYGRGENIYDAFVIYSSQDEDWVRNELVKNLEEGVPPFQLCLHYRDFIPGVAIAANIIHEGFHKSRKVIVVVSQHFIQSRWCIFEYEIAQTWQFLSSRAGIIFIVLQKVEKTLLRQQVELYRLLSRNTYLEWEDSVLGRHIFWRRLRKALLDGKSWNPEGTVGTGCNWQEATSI

Row | IC50 (Toll-like receptor 4) [µM] | Structure (SMILES) | IC50 [1] [µM] | IC50 (RAW264.7 [2]) [µM] | Activity (RAW264.7 [3]) [pg/L] | Activity (RAW264.7 [4]) [pg/L] | Activity (RAW264.7 [5]) [pg/L] | also measured
1 | – | CC(=O)CC(=O)C1CC(C(C)(C)C)CCC1=O (stereo unspecified) | 6.43 | 2.93 | – | – | – | –
2 | 1.78 | CCCC1CCC(C2CCC(=O)C(C(=O)CC(C)=O)C2)CC1 (stereo unspecified) | 3.51 | 1.71 | 478.96 | 180.7 | 545.9 | –
3 | – | COC(=O)C1CCC(=O)C(C(=O)CC(C)=O)C1 (stereo unspecified) | 16.6 | 7.4 | – | – | – | –
4 | – | CN(Cc1cnc2nc(N)nc(N)c2n1)c1ccc(C(=O)N[C@@H](CCC(=O)O)C(=O)O)cc1 [METHOTREXATE] | 2.33 | 1.23 | 235.3 | 115.3 | 334.5 | Activity (RAW264.7 [6]): Active; Activity (RAW264.7 [7]): Active; Activity (RAW264.7 [8]): Active; Activity (RAW264.7 [9]): Active; Activity (RAW264.7 [10]): Active; Activity (RAW264.7 [11]): Active; Activity (RAW264.7 [12]): Active; Activity (RAW264.7 [13]): Active; Activity (RAW264.7 [14]): Active; Activity (RAW264.7 [15]): inactive; Activity (RAW264.7 [16]): inactive; Activity (RAW264.7 [17]): Active; Activity (RAW264.7 [18]): inactive; Activity (RAW264.7 [19]): Active; Activity (RAW264.7 [20]): inactive; Activity (RAW264.7 [21]): Active; Activity (RAW264.7 [22]): Active; Activity (RAW264.7 [23]): Active
5 | – | CC(=O)CC(=O)C1CC(NC(=O)OC(C)(C)C)CCC1=O (stereo unspecified) | 5.11 | 2.67 | – | – | – | –
6 | – | CC(=O)CC(=O)C1CC(c2ccc(O)cc2)CCC1=O (stereo unspecified) | 7.94 | 3.21 | – | – | – | –
7 | 1.12 | CC(=O)CC(=O)C1CC(Cl)CCC1=O (stereo unspecified) | 2.45 | 1.32 | 350.2 | 133.5 | 385.1 | –
8 | – | CCOC(=O)C1CCC(=O)C(C(=O)CC(C)=O)C1 (stereo unspecified) | 5.44 | 2.63 | – | – | – | –
9 | 1.03 | CC(=O)CC(=O)C1CC(N)CCC1=O (stereo unspecified) | 2.15 | 1.2 | 332.9 | 136.9 | 367.3 | –
10 | – | CC(=O)CC(=O)C1CC(NC(=O)OCc2ccccc2)CCC1=O (stereo unspecified) | 4.25 | 2.35 | – | – | – | –
11 | 1.15 | CC(=O)CC(=O)C1CC(C)CCC1=O (stereo unspecified) | 3.32 | 1.69 | 399.1 | 176.6 | 457.8 | –
12 | – | CC(=O)CC(=O)C1CC(c2ccccc2)CCC1=O (stereo unspecified) | 3.95 | 2.18 | – | – | – | –

— ChEMBL document CHEMBL5356964, “Design, synthesis and anti-rheumatoid arthritis activity of target TLR4 inhibitors” (Bioorg Med Chem, 2024)
